Target: T1, Npt (Streptomyces platensis, UniProt A0AAE6NLM9)
T1 construct: recombinant, expressed in E. coli BL21 (DE3), purified
T1 sequence (A0AAE6NLM9 1-219): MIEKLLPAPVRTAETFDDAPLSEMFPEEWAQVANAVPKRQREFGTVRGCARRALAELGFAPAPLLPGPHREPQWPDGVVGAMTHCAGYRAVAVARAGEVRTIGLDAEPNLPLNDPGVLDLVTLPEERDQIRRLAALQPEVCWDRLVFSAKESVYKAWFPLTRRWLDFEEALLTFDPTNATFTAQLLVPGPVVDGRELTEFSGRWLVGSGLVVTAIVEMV
Assay: phosphopantetheinylation of apo-ACPs
Type: biochemical
Details: apo-Pn ACPs as acceptor

## CC(C)(COP(=O)(O)OP(=O)(O)OC[C@H]1O[C@@H](n2cnc3c(N)ncnc32)[C@H](O)[C@@H]1OP(=O)(O)O)[C@@H](O)C(=O)NCCC(=O)NCCS [CoA-SH]
  phosphopantetheinylation of apo-ACPs: Npt serves as a bona fide Ppant transferase that is able to activate apo‐Pn_ACPs
